ChEMBL document CHEMBL1201862, “PubChem BioAssay data set” (2004)
“And” between values parts separate entries of the source, which are not always exact repeats. Identical values can stand only once.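 Tested at 5 concentrations; 48 h exposure; 96-well plates; endpoints linearly interpolated, else capped at highest concentration. Abbreviation: GI50, concentration required for 50% inhibition of growth.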 The source made the active and inactive calls. Cut-off read from the data, not from the text of the source: active = GI50 up to about 1.1 µM and inactive = higher.

Key:
Test in all cases: NCI anticancer screen, dose series, 48 h
786-0 = tested on: 786-0
A498 = tested on: A498
A549 = tested on: A549
ACHN = tested on: ACHN
CAKI-1 = tested on: CAKI-1
CCRF-CEM = tested on: CCRF-CEM
DLD-1 = tested on: DLD-1
DMS-273 = tested on: DMS-273
EKVX = tested on: EKVX
HCC 2998 = tested on: HCC 2998
HCT-116 = tested on: HCT-116
HCT-15 = tested on: HCT-15
HL-60 = tested on: HL-60
HOP-18 = tested on: HOP-18
HOP-62 = tested on: HOP-62
HOP-92 = tested on: HOP-92
HT-29 = tested on: HT-29
IGROV-1 = tested on: IGROV-1
K562 = tested on: K562
KM-20L2 = tested on: KM-20L2
KM12 = tested on: KM12
LXFL 529 = tested on: LXFL 529
M14 = tested on: M14
M19-MEL = tested on: M19-MEL
Malme-3M = tested on: Malme-3M
NCI-H226 = tested on: NCI-H226
NCI-H23 = tested on: NCI-H23
NCI-H460 = tested on: NCI-H460
NCI-H522 = tested on: NCI-H522
OVCAR-3 = tested on: OVCAR-3
OVCAR-4 = tested on: OVCAR-4
OVCAR-5 = tested on: OVCAR-5
RPMI-8226 = tested on: RPMI-8226
RXF 393 = tested on: RXF 393
SF-268 = tested on: SF-268
SF-295 = tested on: SF-295
SF-539 = tested on: SF-539
SK-MEL-28 = tested on: SK-MEL-28
SK-MEL-2 = tested on: SK-MEL-2
SK-MEL-5 = tested on: SK-MEL-5
SK-OV-3 = tested on: SK-OV-3
SN12C = tested on: SN12C
SNB-19 = tested on: SNB-19
SNB-75 = tested on: SNB-75
SNB-78 = tested on: SNB-78
SR = tested on: SR
SW-620 = tested on: SW-620
TK-10 = tested on: TK-10
U-251 = tested on: U-251
UACC-257 = tested on: UACC-257
UACC-62 = tested on: UACC-62
UO-31 = tested on: UO-31
XF498 = tested on: XF498
COLO 205 = tested on: COLO 205
DMS-114 = tested on: DMS-114
LOX IMVI = tested on: LOX IMVI
MOLT-4 = tested on: MOLT-4
OVCAR-8 = tested on: OVCAR-8
BT-549 = tested on: BT-549
DU-145 = tested on: DU-145
Hs-578T = tested on: Hs-578T
MCF7 = tested on: MCF7
MDA-MB-231 = tested on: MDA-MB-231
MDA-MB-435 = tested on: MDA-MB-435
MDA-N = tested on: MDA-N
NCI/ADR-RES = tested on: NCI/ADR-RES
PC-3 = tested on: PC-3
RXF 631 = tested on: RXF 631
T47D = tested on: T47D

Measured: GI50

CCCCCCCCCCCCC/C=C1\C[C@H](O)COC1=O
16.5 µM: HCT-15
inactive: 786-0 16 µM | A498 18.9 µM | A549 19.5 µM | ACHN 15.9 µM | CAKI-1 18.9 µM | CCRF-CEM 14.3 µM | DLD-1 17 µM | DMS-273 14.4 µM | EKVX 17.5 µM | HCC 2998 20.9 µM | HCT-116 15.9 µM | HL-60 19.8 µM | HOP-18 17.4 µM | HOP-62 16.6 µM | HOP-92 11.6 µM | HT-29 15.7 µM | IGROV-1 18.1 µM | K562 15.9 µM | KM-20L2 16.9 µM | KM12 16.3 µM | LXFL 529 16.3 µM | M14 15 µM | M19-MEL 18.4 µM | Malme-3M 21 µM | NCI-H226 16.3 µM | NCI-H23 20.4 µM | NCI-H460 17.3 µM | NCI-H522 17.1 µM | OVCAR-3 17.5 µM | OVCAR-4 16.9 µM | OVCAR-5 19.2 µM | RPMI-8226 17.5 µM | RXF 393 20 µM | SF-268 20.4 µM | SF-295 18.1 µM | SF-539 19.8 µM | SK-MEL-28 16.2 µM | SK-MEL-2 16.6 µM | SK-MEL-5 13.7 µM | SK-OV-3 20.8 µM | SN12C 14.9 µM | SNB-19 18.9 µM | SNB-75 15.9 µM | SNB-78 18.4 µM | SR 18.6 µM | SW-620 15.4 µM | TK-10 17.6 µM | U-251 17.7 µM | UACC-257 14.8 µM | UACC-62 13.7 µM | UO-31 18.6 µM | XF498 16.3 µM

COc1ccc(/C=C/C(=O)c2c(-c3ccccc3)nn(C)c(=O)c2N2CCCC2)cc1
> 100 µM: HCT-15
inactive: 786-0 82 µM | A498 > 100 µM | A549 > 100 µM | ACHN > 100 µM | CCRF-CEM > 100 µM | COLO 205 > 100 µM | DLD-1 > 100 µM | DMS-114 > 100 µM | DMS-273 > 100 µM | EKVX > 100 µM | HCT-116 87.9 µM | HL-60 20.9 µM | HOP-18 > 100 µM | HOP-92 3.69 µM | HT-29 > 100 µM | IGROV-1 > 100 µM | K562 57.3 µM | KM-20L2 > 100 µM | LOX IMVI > 100 µM | LXFL 529 > 100 µM | M14 > 100 µM | M19-MEL > 100 µM | MOLT-4 36.9 µM | NCI-H460 > 100 µM | OVCAR-8 > 100 µM | RPMI-8226 > 100 µM | SF-268 87.3 µM | SF-295 70.5 µM | SF-539 69.2 µM | SK-MEL-28 > 100 µM | SK-MEL-5 > 100 µM | SK-OV-3 > 100 µM | SN12C > 100 µM | SW-620 > 100 µM | TK-10 > 100 µM | U-251 > 100 µM | UACC-62 > 100 µM | UO-31 > 100 µM | XF498 > 100 µM

CC(C)(O)/C=C/C(=O)[C@](C)(O)[C@H]1[C@H](O)C[C@@]2(C)[C@@H]3CC=C4[C@@H](C=C(O)C(=O)C4(C)C)[C@]3(C)C(=O)C[C@]12C [CUCURBITACIN I]
active: A549 493 nM and 271 nM | BT-549 0.0147 µM | DMS-273 243 nM and 218 nM | DU-145 < 0.01 µM | HCT-116 631 nM and 363 nM | HT-29 538 nM and 321 nM | Hs-578T 0.0485 µM | K562 841 nM and 504 nM | KM-20L2 482 nM and 318 nM | LOX IMVI 430 nM and 238 nM | LXFL 529 339 nM and 513 nM | M14 548 nM and 303 nM | MCF7 0.0245 µM | MDA-MB-231 0.0223 µM | MDA-MB-435 < 0.01 µM | MDA-N < 0.01 µM | Malme-3M 536 nM and 329 nM | NCI-H460 288 nM and 543 nM | NCI/ADR-RES 0.126 µM | OVCAR-3 395 nM and 783 nM | PC-3 0.0238 µM | RPMI-8226 281 nM and 318 nM | RXF 393 225 nM and 440 nM | RXF 631 372 nM and 536 nM | SF-268 475 nM and 251 nM | SK-MEL-2 442 nM and 237 nM | SNB-78 303 nM and 528 nM | SR 644 nM and 410 nM | SW-620 334 nM and 541 nM | T47D 0.104 µM | UACC-257 324 nM and 555 nM | UACC-62 805 nM and 607 nM | XF498 284 nM and 330 nM
1.21 µM (inactive) and 698 nM (active): DMS-114
inactive: KM12 1.9 µM and 1.12 µM | MOLT-4 1.88 µM and 1.61 µM | NCI-H23 2.38 µM and 1.33 µM | OVCAR-5 3.03 µM and 3.24 µM | OVCAR-8 1.3 µM and 2.13 µM
975 nM (active) and 1.27 µM (inactive): EKVX
